Experiments:
[1] = Measured Log P; assay type: physicochemical
[2] = 90/30 mg split daily dosing; cited from earlier work
[3] = Shoaf, 2013; cited from earlier work

- logP [1]: > 3
Compound: Cc1ccccc1C(=O)Nc1ccc(C(=O)N2CCCC(O)c3cc(Cl)ccc32)c(C)c1 (stereo not drawn) [tolvaptan]
- individuals with ALT elevations (reported by Woodhead) [2]: approximately 8%
- exposure in subjects with impaired renal function compared to healthy individuals [3]: increased exposure

— patent publication US11241441B2, “Formulations of lixivaptan for the treatment of polycystic disease” (PALLADIO BIOSCIENCES, INC., priority 2017, dated 2022)
